Measured values from patent US20230417751A1, “ANALYSIS OF PROTEIN KINASES IN LIVE CELLS” (Texas Tech University System, priority 2021, published 2023).

Tests used:
[1] = target: T1, Akt1M-G (Homo sapiens, UniProt P31749, M227G); test: Preliminary fluorogenic experiment with nanoparticle loaded with TNP-A*TP and alexa-fluo-647-ATP; format: cell-based; details: nanoparticle with TNP-A*TP and alexa-fluo-647-ATP 10:1
T1 construct: expressed in transfected cells
Experimental: The cells transfected with Akt1M-G or WT Akt1 expression vectors were treated with the nanoparticle. Alexa-fluo-647-ATP signal monitored nanoparticle delivery in all cells (FIG. 10A-D).

[2] = target: T2, wild type AKT1 (Homo sapiens, UniProt P31749); details: in vitro; cited from earlier work
Target sequence in this assay (P31749 whole entry, species assumed): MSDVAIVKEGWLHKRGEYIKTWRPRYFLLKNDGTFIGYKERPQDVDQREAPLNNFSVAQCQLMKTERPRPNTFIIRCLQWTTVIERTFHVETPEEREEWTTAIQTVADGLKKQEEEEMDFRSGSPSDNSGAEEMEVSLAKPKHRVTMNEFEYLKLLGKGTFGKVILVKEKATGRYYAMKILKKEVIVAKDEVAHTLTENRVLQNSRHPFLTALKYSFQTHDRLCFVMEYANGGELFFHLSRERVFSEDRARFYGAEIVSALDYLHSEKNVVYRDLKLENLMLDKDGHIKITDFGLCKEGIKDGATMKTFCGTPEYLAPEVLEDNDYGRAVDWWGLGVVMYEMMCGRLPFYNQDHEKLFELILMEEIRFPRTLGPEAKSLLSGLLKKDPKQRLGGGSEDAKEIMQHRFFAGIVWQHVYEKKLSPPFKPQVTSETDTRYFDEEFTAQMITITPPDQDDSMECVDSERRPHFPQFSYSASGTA

[3] = target: T2, wild type AKT1; test: Intracellular A*TPγS delivery and thio-phosphorylation assay, cells transfected with wild type AKT1; format: cell-based; design: host or cells: HCT116
Experimental: (§1) Plasmid constructs. Wild type AKT1 plasmid was purchased from Addgene (Addgene plasmid pcDNA3-myr-HA-AKT1 1036). Point mutation as in references (37) of the ATP-binding pocket gatekeeper amino acid (M227G) were introduced by GENEWIZ (New Jersey, USA), with a modified Strategene QuikChange® site-directed mutagenesis method.
(§2) Expression plasmid transfection. The HCT116 cells were plated into […] dishes and transfected at approximately 90% confluence with the specified plasmid (wild type pcDNA3-myr-HA-AKT1 plasmid or the mutant pcDNA3-myr-HA-AKT1 plasmid) using BP-Fectin mammalian cell transfection reagent (BioPioneer, USA) in accordance with the manufacturer's instructions. One untransfected dish was used as a negative control. After 72 hours, cells were washed twice with cold PBS. Transfection efficacy was confirmed by western-blot measurement of the expression of the HA-tagged fusion proteins with the HA tag monoclonal antibody (Thermo Fisher Scientific, USA).
Intracellular A*TPγS delivery and thio-phosphorylation assays. […] Then, the PNBM treated cell lysates were analyzed with a western blot assay to measure protein thio-phosphorylation with the anti-thiophosphate ester rabbit monoclonal antibodies (Abcam, USA). […]
(§3) Western blotting assay. First, total protein concentrations of the cell lysates were determined by a BCA protein assay kit (Thermo, USA). […]
Target sequence in this assay (P31749 whole entry): as the sequence (P31749 whole entry, species assumed) above

[4] = target: T3, AKT2 (Homo sapiens, UniProt P31751); test: Live cell AKT substrate tagging, cells transfected with WT AKT2; format: cell-based; details: HCT116 cells, WT-AKT expression vector (AKT1 and AKT2 stated together), A*TPγS delivery
T3 construct: expressed in transfected cells; host or cells: HCT116
Experimental: (§4) Intracellular A*TPγS delivery and thio-phosphorylation assays. Control and transfected HCT116 cells were incubated with A*TPγS-loaded LCP nanoparticles for 4 hours. The cells were washed by cold PBS twice and then lysed with RIPA buffer (which contains protease and phosphatase inhibitors) for 30 minutes at 4° C. The cell lysates were treated with 2.5 mM PNBM at room temperature for 1 hour. Then, the PNBM treated cell lysates were analyzed with a western blot assay to measure protein thio-phosphorylation with the anti-thiophosphate ester rabbit monoclonal antibodies (Abcam, USA).
(§5) Immunoprecipitation assays. The PNBM-treated cell lysates were pre-cleaned by an off-target antibody. Then the cleaned cell lysates were incubated with 10 μL anti-thiophosphate ester rabbit monoclonal antibody (Abcam, USA) at 4° C. for 12 hours. 100 μL protein G beads (Thermo Fisher Scientific, USA) were mixed under rotary agitation at 4° C. for 4 hours, washed twice by wash buffer, and the beads were collected. Then, proteins were captured in the beads and released by elution buffer. The elution buffer was collected and stored at −80° C.
(§6) Western blotting assay. First, total protein concentrations of the cell lysates were determined by a BCA protein assay kit (Thermo, USA). Protein extracts were separated by SDS-PAGE, then transferred onto a nitrocellulose membrane (NC membrane). […]

[5] = target: T4, AKT2^M-G (Homo sapiens, UniProt P31751, M229G); test: Live cell AKT substrate tagging, cells transfected with AKT2^M-G; format: cell-based; details: HCT116 cells, AKT^M-G expression vector (AKT1 and AKT2 stated together), A*TPγS delivery
T4 construct: expressed in transfected cells; host or cells: HCT116
Experimental: as §4, §5, §6

[6] = target: T5, mutant AKT1 (M227G) (Homo sapiens, UniProt P31749, M227G); test: Intracellular A*TPγS delivery and thio-phosphorylation assay, cells transfected with mutant AKT1; format: cell-based
T5 construct: mutagenesis by GENEWIZ pcDNA3-myr-HA-AKT1 1036; host or cells: HCT116
Experimental: as §1, §2, §4
as §5, with “Then, proteins were captured in the beads and released by elution buffer. The elution buffer was collected and stored at −80° C.” left out
as §3

[7] = target: AKT1 mutant with enlarged ATP binding pocket (Homo sapiens, UniProt P31749, M227G); details: cited from earlier work
AKT1 mutant with enlarged ATP binding pocket, sequence (P31749 whole entry M227G): as the sequence (P31749 whole entry, species assumed) above, with M227G counted along it

T5 sequence (P31749 whole entry M227G): as the sequence (P31749 whole entry, species assumed) above, with M227G counted along it
T1 sequence (P31749 whole entry M227G): as the sequence (P31749 whole entry, species assumed) above, with M227G counted along it
T3 sequence (P31751 whole entry): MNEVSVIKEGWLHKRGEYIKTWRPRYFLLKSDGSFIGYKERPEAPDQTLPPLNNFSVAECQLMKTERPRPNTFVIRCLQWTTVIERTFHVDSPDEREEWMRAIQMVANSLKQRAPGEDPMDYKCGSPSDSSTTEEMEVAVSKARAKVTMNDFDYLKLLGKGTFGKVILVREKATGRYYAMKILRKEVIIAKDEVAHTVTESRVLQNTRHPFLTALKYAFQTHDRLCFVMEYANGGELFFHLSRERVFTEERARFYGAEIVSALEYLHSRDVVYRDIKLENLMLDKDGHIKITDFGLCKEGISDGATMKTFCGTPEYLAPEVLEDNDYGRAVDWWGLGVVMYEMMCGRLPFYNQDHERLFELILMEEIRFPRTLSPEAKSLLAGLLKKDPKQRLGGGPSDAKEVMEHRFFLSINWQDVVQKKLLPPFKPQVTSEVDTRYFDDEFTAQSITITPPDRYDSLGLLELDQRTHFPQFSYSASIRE
T4 sequence (P31751 whole entry M229G): as the sequence (P31751 whole entry) above, with M229G counted along it

For TNP-N^6-Benzyl-ATP [TNP-A*TP], the “TNP-A*TP fluorescence signal, subcellular localization” value ([1]; Akt1M-G-expressing cells) was “localized mainly to cell membrane” and the “TNP-A*TP fluorescence signal, specificity” value ([1]; cells transfected with Akt1M-G or WT Akt1 vectors) was “specific to Akt1M-G-expressing cells”.

For `Nc1ncnc2c1ncn2[C@@H]1O[C@H](COP(=O)(O)OP(=O)(O)OP(O)(O)=S)[C@@H](O)[C@H]1O` [ATPγS], the “utilization by wild type AKT1 to tag substrate GSK3β” value [2] is listed as “can be utilized by wild type AKT1 to tag its substrate GSK3β in vitro”.

For “N^6-Benzyladenosine-5′-(3-thiotriphosphate) [A*TPγS]”, the “AKT1 auto-thiophosphorylation: HA-tag Western blot of anti-thiophosphate-ester immunoprecipitant” value ([3]; HCT116 cells, wild type AKT1 vector, A*TPγS-loaded LCP nanoparticle 4 hours, PNBM alkylation) was “not detected”, the “proteins immunoprecipitated by thiophosphate ester antibody (SDS-PAGE, silver blue coomassie stain)” value ([3]; lysate of wild-type-AKT1-expressing HCT116 cells treated with the nanoparticle) was “not from that of wild-type-AKT1-expressing cells” and the “thio-phosphorylation by Western blot with alkylated thiophosphate-tag antibody” value [4] was “not those of WT-AKT transfected cells”. For the same compound, the “thio-phosphorylation by Western blot with alkylated thiophosphate-tag antibody” value [5] was “detected thio-phosphorylation”, the “AKT1 auto-thiophosphorylation: HA-tag Western blot of anti-thiophosphate-ester immunoprecipitant” value ([6]; HCT116 cells, mutant AKT1 vector, A*TPγS-loaded LCP nanoparticle 4 hours, PNBM alkylation) was “detected” and the “thiophosphorylation of AKT1 substrate IKKalpha: IKKalpha Western blot of anti-thiophosphate-ester immunoprecipitant” value ([6]; HCT116 cells, mutant AKT1 vector, A*TPγS-loaded LCP nanoparticle, PNBM alkylation) was “detected”. For the same compound, the “proteins immunoprecipitated by thiophosphate ester antibody (SDS-PAGE, silver blue coomassie stain)” value ([6]; lysate of mutant-AKT1-expressing HCT116 cells treated with the nanoparticle) was “immunoprecipitate at high quantities a large number of proteins”.

For `O=P(O)(O)OP(=O)(O)OP(=O)(O)OC[C@H]1O[C@@H](n2cnc3c(NCc4ccccc4)ncnc32)[C@H](O)[C@@H]1O` [A*TP, N^6-Benzyl-ATP], the “binding to AKT1 mutant with enlarged ATP binding pocket” value [7] is listed as “has been shown to bind”.
